Test results published in US20100178250A1, “Method of Local Delivery of Bioactive and Diagnostic Agents Using Magnetizable Bone Cement” (Philadelphia Health & Education Corporation, priority 2006, published 2010).

Key:
Staphlococcus aureus = Staphlococcus aureus bacterial cultures (plate, clear areas); type: cell-based; settings: 150 μL beads or 10 mg tobramycin disc on plate
Procedure: Staphlococcus aureus bacterial cultures were performed in the microbiology department of Hahnemann University Hospital. On each plate 150 μL of control beads, 150 μL, of antibiotic beads and a 10 mg tobramycin disc were placed in order to see any bactericidal activity.

[1] = test system: bacterial strains cultured directly from clinically retrieved gentamicin-loaded bone cement; settings: cited from earlier work

Row | Compound | bactericidal activity (clear areas indicating lack of bacterial growth) (Staphlococcus aureus) | gentamicin resistant strains [1]
1 | NC[C@H]1O[C@H](O[C@H]2[C@H](O)[C@@H](O[C@H]3O[C@H](CO)[C@@H](O)[C@H](N)[C@H]3O)[C@H](N)C[C@@H]2N)[C@H](N)C[C@@H]1O [tobramycin disc, tobramycin] | clear areas present | –
2 | gentamicin | – | 19 of 28
